Assay [1] relates to Plenodomus lingam. Put plainly: Specific activity of Leptosphaeria maculans brassinin oxidase.
Assay [2] relates to Plenodomus lingam. The assay can be described thus: Antifungal activity against Leptosphaeria maculans BJ 125 at 0.20 mM. The format is functional.
Assay [3] concerns Plenodomus lingam. The assay can be described thus: Antifungal activity against Leptosphaeria maculans BJ 125 at 0.10 mM. The format is functional.
The test system of assay [4] is Plenodomus lingam. The assay can be described thus: Antifungal activity against Leptosphaeria maculans BJ 125 at 0.50 mM. It counts as functional.

Activity calls are given as the source filed them. The rule behind the calls is not given here.

In turn, `COC(=O)NCc1c[nH]c2ccccc12` came in with an Activity in assay [1] of 4060 mU/mg. The same measure, in the same setting: the value for `CSC(=S)OCCc1c[nH]c2ccccc12` was “inactive”.

In the case of `CSC(=S)NCc1c[nH]c2ccccc12` [BRASSININ], the inhibition (usually the change of the read-out against control, counted positive when it falls) at 200 µM in assay [2] amounted to 45%. In addition, the outcome in assay [3] was inactive. The molecule also yielded an Activity in assay [1] of 835 mU/mg. This molecule also gave an inhibition at 500 µM in assay [4] of 100%. `CSC(=O)NCc1c[nH]c2ccccc12`: the Activity in assay [1] is 2150 mU/mg. Consider `CSC(=S)N(C)Cc1c[nH]c2ccccc12`, for which the inhibition at 200 µM in assay [2] was found to be 100%. The molecule also registered an inhibition at 100 µM in assay [3] of 74%. The result in assay [1] was inactive. The same molecule displayed an inhibition at 500 µM in assay [4] of 100%. In the case of `CCSC(=S)NCc1c[nH]c2ccccc12`, in assay [2], the inhibition at 200 µM turned out to be 76%. In assay [3], this molecule gave an inhibition at 100 µM of 28%. The Activity in assay [1] came to 434 mU/mg. The inhibition at 500 µM in assay [4] came to 100%.

On to `COC(=O)CCc1c[nH]c2ccccc12`, for which the result in assay [1] was inactive. The same measure, in the same setting: the value for `CNC(=O)CCc1c[nH]c2ccccc12` was “inactive”; that for `CNC(=S)NCc1c[nH]c2ccccc12` was 2560 mU/mg; that for `CC(=O)NCc1c[nH]c2ccccc12` was “inactive”.

`CNC(=O)NCc1c[nH]c2ccccc12` came in with an Activity in assay [1] of 3280 mU/mg.

As for `CCCSC(=S)NCc1c[nH]c2ccccc12`, in assay [2], at 200 µM the inhibition was 100%. In assay [3], this molecule gave an inhibition at 100 µM of 78%. Also, the outcome in assay [1] was inactive. This molecule also came in with an inhibition at 500 µM in assay [4] of 100%. In the case of `CSC(=S)NCc1cn(C)c2ccccc12`, in assay [1], the Activity worked out at 944 mU/mg.

With `CSC(=S)NCCc1c[nH]c2ccccc12`, the result in assay [1] was inactive. As for `COC(=O)N(C)Cc1c[nH]c2ccccc12`, the outcome in assay [1] was inactive.

The record behind these values is ChEMBL document CHEMBL1143751, “Isosteric probes provide structural requirements essential for detoxification of the phytoalexin brassinin by the fungal pathogen Leptosphaeria maculans” (2007).
